These results are taken from patent US20150125528A1 (The Water Initiative, LLC, priority 2012, published 2015).

A short description of this data set: calcium hypochlorite stability temperature data. In kind it is physicochemical. To be noted: below approximately 120° C., 15 minute exposure. From the text:
FIG. 2 illustrates calcium hypochlorite stability temperature data.

Consider `[Ca+2].[O-]Cl.[O-]Cl` [calcium hypochlorite], for which the “free chlorine concentration on heating” value is “maintains its free chlorine concentration”.
